Assay results reported in PMC11725774 (Cancer Research Communications, 2025).
Like-named read-outs stand apart in the source and are kept apart here. Values belong to the molecule of their own block, whether it stands above or below them.

Key:
MV-4-11 cells = test: Growth inhibition of AML cell line; assay type: cell-based, human
Method: (§1) MV-4-11 cells expressing NRAS^G12D were prepared by transduction with a lentiviral vector encoding the NRAS^G12D mutation. Assays using a panel of parental Ba/F3 into which an additional copy of either WT or a mutant form of FLT3 was introduced were performed at Kyinno Biotechnology Co., Ltd. All cell lines were short tandem repeat authenticated at ATCC or at DSMZ when originally obtained, and no further authentication was done after receipt of the cells in the laboratory.
(§2) Assays using Ba/F3 cells expressing WT and mutant forms of FLT3 were performed by Kyinno Biotechnology. The cells were cultured in the medium recommended by the source for each cell line. Growth inhibition assays were performed using either Cell Titer 96 Aqueous One Solution Cell Proliferation assay (Promega, # G3581) or CCK8 (Dojindo, # CK-04). […] IC50 values were determined from growth inhibition curves fitted using GraphPad Prism and a nonlinear regression model with sigmoidal dose response. Unless otherwise indicated, data are presented as mean ± SEM.

MOLM-14 cells (parental) = test: Growth inhibition of AML cell line; assay type: cell-based, human
Method: as §1, §2

MOLM-13 cells = test: Growth inhibition of AML cell line; assay type: cell-based; conditions: Homo sapiens, mean ± SD
Method: as §1, §2

Ba/F3 cells FLT3 ITD = test: Growth inhibition of Ba/F3 cells; assay type: cell-based, murine; conditions: Mus musculus, BaF3; Ba/F3 FLT3 ITD; mean ± SD; read-out: GI50
Method: as §1, §2

Ba/F3 cells FLT3 D835Y = test: Growth inhibition of Ba/F3 cells; assay type: cell-based, murine; conditions: Mus musculus, BaF3; Ba/F3 FLT3 D835Y; mean ± SD; read-out: GI50
Method: as §1, §2

[1] = test system: Ba/F3 cells FLT3 ITD/F691L; test: Growth inhibition of Ba/F3 cells; assay type: cell-based, murine; conditions: Mus musculus, BaF3; Ba/F3 FLT3 ITD/F691L; mean ± SD; read-out: GI50
Method: as §1, §2

[2] = test system: Ba/F3 cells FLT3 ITD/D835Y; test: Growth inhibition of Ba/F3 cells; assay type: cell-based, murine; conditions: Mus musculus, BaF3; Ba/F3 FLT3 ITD/D835Y; mean ± SD; read-out: GI50
Method: as §1, §2

TUS/R MOLM-14 cells = test: Growth inhibition of TUS-resistant sublines versus parental; assay type: cell-based, human
TUS/R line 4 (MOLM-14) = test: Growth inhibition of TUS-resistant subline; assay type: cell-based, human; conditions: for GI50: mean ± SEM (Supplementary Table 6)
TUS/R line 3 (MOLM-14) = test: Growth inhibition of TUS-resistant subline; assay type: cell-based, human; conditions: for GI50: mean ± SEM (Supplementary Table 6)
[3] = test system: MV-4-11 NRAS G12D Clone 4; test: Growth inhibition of NRAS G12D clone; assay type: cell-based, human
Method: as §1, §2

[4] = test system: MV-4-11 NRAS G12D Clone 1; test: Growth inhibition of NRAS G12D clone; assay type: cell-based, human; conditions: for GI50: MV-4-11 NRAS G12D, mean ± SEM
Method: as §1, §2

[5] = test system: MV-4-11 NRAS G12D Clone 15; test: Growth inhibition of NRAS G12D clone; assay type: cell-based, human; conditions: for GI50: MV-4-11 NRAS G12D, mean ± SEM
Method: as §1, §2

TUS/R line 1 (MOLM-14) = test: Growth inhibition of TUS-resistant subline; assay type: cell-based; conditions: Homo sapiens, MOLM-14, read-out: IC50 (nmol/L), Mean ± SEM, TUS/R line 1
TUS/R line 2 (MOLM-14) = test: Growth inhibition of TUS-resistant subline; assay type: cell-based; conditions: Homo sapiens, MOLM-14, read-out: IC50 (nmol/L), Mean ± SEM, TUS/R line 2
[6] = Homo sapiens, MV4-11, MV-4-11, mean ± SD (Supplementary Table 4), read-out: GI50
[7] = Homo sapiens, MOLM-14, mean ± SD (Supplementary Table 4), read-out: GI50
[8] = Homo sapiens, MOLM-14, mean ± SEM (Supplementary Table 6), read-out: GI50 (nM) Parental MOLM-14 (converted)
[9] = Homo sapiens, MOLM-14, read-out: GI50 (nM) TUS/R line 4
[10] = Homo sapiens, MOLM-14, read-out: GI50 (nM) TUS/R line 3
[11] = Homo sapiens, MV4-11, mean ± SEM (Supplementary Table 7), read-out: GI50 (nM) Parental (MV-4-11)
[12] = Homo sapiens, MV4-11, MV-4-11 NRAS G12D, high expression, mean ± SEM, read-out: GI50 (nM) Clone 4
[13] = 13 to […]-fold increase in NRAS G12D expression

SMILES: CC1(C)CCC(c2ccc(Cl)cc2)=C(CN2CCN(c3ccc(C(=O)NS(=O)(=O)c4ccc(N[C@H](CCN5CCOCC5)CSc5ccccc5)c(S(=O)(=O)C(F)(F)F)c4)cc3)CC2)C1 [Navitoclax, navitoclax]
fold hypersensitive, TUS/R versus parental MOLM-14 (TUS/R MOLM-14 cells): ~27 fold
GI50 (MOLM-14 cells (parental); [8]): 410 ± 50.2 nM
GI50 (TUS/R line 4 (MOLM-14); [9]): 15 ± 2.1 nM
GI50 (TUS/R line 3 (MOLM-14); [10]): 15.3 ± 2.4 nM

SMILES: N#CC[C@H](C1CCCC1)n1cc(-c2ncnc3[nH]ccc23)cn1 [Ruxolitinib, ruxolitinib]
GI50 (TUS/R line 4 (MOLM-14); [9]): ~1130 nM
GI50 (TUS/R line 3 (MOLM-14); [10]): ~1100 nM

SMILES: Cc1c(-c2c(-c3ccc(F)o3)sc3ncnc(O[C@H](Cc4ccccc4OCc4ccnn4CC(F)(F)F)C(=O)O)c23)ccc(OCCN2CCN(C)CC2)c1Cl [S63845]
GI50 ([3]; MV-4-11 NRAS G12D, high expression, mean ± SEM, read-out: GI50 (nM) Clone 4): 7.3 ± 1.5 nM
GI50 [4]: 1.1 ± 0.3 nM
GI50 [5]: 1.5 ± 0.1 nM
fold hypersensitive, TUS/R versus parental MOLM-14 (TUS/R MOLM-14 cells): ~20 fold
GI50 (MV-4-11 cells; mean ± SEM (Supplementary Table 7), read-out: GI50 (nM) Parental (MV-4-11)): 4.6 ± 0.4 nM
GI50 (MOLM-14 cells (parental); mean ± SEM (Supplementary Table 6), read-out: GI50 (nM) Parental MOLM-14 (converted)): 105 ± 19.8 nM
GI50 (TUS/R line 4 (MOLM-14); read-out: GI50 (nM) TUS/R line 4): 4.6 ± 0.3 nM
GI50 (TUS/R line 3 (MOLM-14); read-out: GI50 (nM) TUS/R line 3): 5.6 ± 0.7 nM

SMILES: CC(=O)Nc1cccc(-n2c(=O)n(C3CC3)c(=O)c3c(Nc4ccc(I)cc4F)n(C)c(=O)c(C)c32)c1 [Trametinib, trametinib]
GI50 [3, 12]: 2.5 ± 0.7 nM
GI50 ([4]; Homo sapiens, MV4-11): 1.6 ± 0.4 nM
GI50 ([5]; Homo sapiens, MV4-11): 2.3 ± 0.8 nM
fold hypersensitive, TUS/R versus parental MOLM-14 (TUS/R MOLM-14 cells): ~1.9 fold
GI50 (MV-4-11 cells; [11]): 6.7 ± 1.6 nM
GI50 (MOLM-14 cells (parental); [8]): 153 ± 14.5 nM
GI50 (TUS/R line 4 (MOLM-14); [9]): 101.5 ± 0.4 nM
GI50 (TUS/R line 3 (MOLM-14); [10]): 67 ± 12.8 nM

SMILES: CC1(C)CCC(CN2CCN(c3ccc(C(=O)NS(=O)(=O)c4ccc(NCC5CCOCC5)c([N+](=O)[O-])c4)c(Oc4cnc5[nH]ccc5c4)c3)CC2)=C(c2ccc(Cl)cc2)C1 [Venetoclax, venetoclax]
GI50 [3, 12]: 2260 ± 156 nM
fold resistant / loss of sensitivity, clone 4 versus parental MV-4-11 ([3]; high NRAS G12D expression): 214 fold
change in sensitivity, clone 1 [4, 13]: did not alter sensitivity
GI50 ([4]; Homo sapiens, MV4-11): 5.5 ± 1.4 nM
change in sensitivity, clone 15 [5, 13]: did not alter sensitivity
GI50 ([5]; Homo sapiens, MV4-11): 4.9 ± 1.3 nM
IC50 (TUS/R line 1 (MOLM-14)): 1.3 ± 0.1 nmol/L
GI50 (MV-4-11 cells; [11]): 10.5 ± 1.7 nM
IC50 (MOLM-14 cells (parental); Homo sapiens, MOLM-14, growth inhibition, three independent experiments, read-out: IC50 (nmol/L), Mean ± SEM, MOLM-14 parental): 3020 ± 464 nmol/L
IC50 (TUS/R line 2 (MOLM-14)): 1.5 ± 0.05 nmol/L
IC50 (TUS/R line 4 (MOLM-14); Homo sapiens, MOLM-14, read-out: IC50 (nmol/L), Mean ± SEM, TUS/R line 4): 5 ± 0.8 nmol/L
IC50 (TUS/R line 3 (MOLM-14); Homo sapiens, MOLM-14, read-out: IC50 (nmol/L), Mean ± SEM, TUS/R line 3): 1.1 ± 0.2 nmol/L

Second part, led by results:

GI50 (MV-4-11 cells; [6]): 6 ± 1.4 nM
GI50 (MOLM-13 cells): 19 ± 14 nM
GI50 (Ba/F3 cells FLT3 ITD): 5.1 ± 0.1 nM
GI50 (Ba/F3 cells FLT3 D835Y): 9 ± 2.7 nM
GI50 [1]: 16 ± 3.5 nM
GI50 [2]: 21 ± 1.1 nM
SMILES: CO[C@@H]1[C@H](N(C)C(=O)c2ccccc2)C[C@H]2O[C@]1(C)n1c3ccccc3c3c4c(c5c6ccccc6n2c5c31)C(=O)NC4 [Midostaurin, midostaurin]
GI50 (MOLM-14 cells (parental); [7]): 12 ± 7.1 nM

GI50 (TUS/R line 4 (MOLM-14); [9]): 142 ± 9.1 nM
GI50 (TUS/R line 3 (MOLM-14); [10]): 164 ± 14.7 nM
SMILES: COC1=CC(c2cc3ccccc3[nH]2)=N/C1=C\c1[nH]c(C)cc1C [Obatoclax, obatoclax]
fold hypersensitive, TUS/R versus parental MOLM-14 (TUS/R MOLM-14 cells): no increase in sensitivity
GI50 (MOLM-14 cells (parental); [8]): 98.2 ± 7.7 nM

GI50 ([3]; Homo sapiens, MV4-11, read-out: GI50 (nM) Clone 4): 1.9 ± 0.5 nM
GI50 ([4]; Homo sapiens, MV4-11): 1.1 ± 0.2 nM
GI50 ([5]; Homo sapiens, MV4-11): 1.3 ± 0.4 nM
GI50 (MV-4-11 cells; [6]): 0.2 ± 0.1 nM
GI50 (MOLM-13 cells): 0.9 ± 0.5 nM
GI50 (TUS/R line 4 (MOLM-14); [9]): 0.5 ± 0.1 nM
GI50 (TUS/R line 3 (MOLM-14); [10]): 0.2 ± 0.1 nM
SMILES: CC(C)(C)c1cc(NC(=O)Nc2ccc(-c3cn4c(n3)sc3cc(OCCN5CCOCC5)ccc34)cc2)no1 [Quizartinib, quizartinib]
GI50 (MV-4-11 cells; [11]): 0.5 ± 0.1 nM
GI50 (MOLM-14 cells (parental); [8]): 0.5 ± 0.02 nM
GI50 (MOLM-14 cells (parental); [7]): 0.6 ± 0.2 nM
